What all share (assay): ≥ marks a high value that may be exact or a test limit, other limits are often not marked, values filed in µg/mL are converted to µM
The test system of experiment [1] is Candida albicans ATCC 36232.
Experiment [2] relates to Micrococcus luteus ATCC 9341.
For experiment [3], the system named is Staphylococcus aureus ATCC 6538.
Experiment [4] has as its system Salmonella enterica subsp. enterica serovar Pullorum C79-13.
The test system of experiment [5] is Escherichia coli ATCC 25922.
For experiment [6], the system named is Lacticaseibacillus rhamnosus 7469.
Experiment [7] deals with Salmonella enterica subsp. enterica serovar Typhimurium C77-31.
Experiment [8] concerns Escherichia coli K88.
Experiment [9] has as its system Salmonella enterica subsp. enterica serovar Typhimurium ATCC 14028.
For experiment [10], the system named is Lacticaseibacillus rhamnosus 1.0911.
The test system of experiment [11] is Pseudomonas aeruginosa ATCC 27853.
For experiment [12], the system named is Lactiplantibacillus plantarum 8014.
For experiment [13], the system named is Lacticaseibacillus rhamnosus 1.0385.
Experiment [14] has as its system Lacticaseibacillus rhamnosus 1.0936.
Experiment [15] relates to Staphylococcus aureus ATCC 43300.
Experiment [16] deals with Staphylococcus aureus ATCC 25923.
Experiment [17] relates to Escherichia coli UB1005.
Experiment [18] has as its system Escherichia coli K99.
In experiment [19] the test system is Acinetobacter baumannii 9931.
In experiment [20] the test system is Klebsiella pneumoniae ATCC 700603.
Experiment [21] concerns Staphylococcus aureus 75.
The test system of experiment [22] is Staphylococcus aureus ATCC 29213.
The subject of experiment [23] is Acinetobacter baumannii ATCC 19606.
Experiment [24] deals with Staphylococcus epidermidis ATCC 12228.
Experiment [25] deals with Bacillus subtilis ATCC 23857.
For experiment [26], the system named is Staphylococcus aureus 113.
For experiment [27], the system named is Escherichia coli 780.
Experiment [28] has as its system Pseudomonas aeruginosa ATCC 9027.
Experiment [29] concerns Pseudomonas aeruginosa 50.

Values after ≈ are worked out from the molar mass of the structure shown. Values joined by “and” are separate entries in the source; they are usually repeats but may differ in a detail not shown here. Equal values may be shown once.

Consider `CC(C)[C@H](NC(=O)[C@H](CCCCN)NC(=O)[C@H](Cc1ccccc1)NC(=O)[C@@H](NC(=O)[C@@H](NC(=O)[C@@H](N)CCCCN)C(C)C)C(C)C)C(=O)N[C@@H](CCCCN)C(=O)N[C@@H](Cc1ccccc1)C(=O)N[C@@H](CCCCN)C(=O)N[C@@H](CCCCN)C(=O)N[C@@H](CCCCN)C(N)=O` [KVVFKVKFKKK], for which the MIC in [1] was 4.53 µM and 2.27 µM and 3.21 µM; in [2] it was 2.27 µM (≈ 3.13 µg/mL); in experiment [3], 2.27 µM (≈ 3.13 µg/mL).

As to `C[C@@H]1NC(=O)[C@@H](N)CSSC[C@@H](C(=O)N[C@@H](CCCN=C(N)N)C(=O)N[C@@H](Cc2c[nH]c3ccccc23)C(=O)N[C@@H](Cc2c[nH]c3ccccc23)C(=O)N[C@@H](Cc2c[nH]c3ccccc23)C(=O)N[C@@H](CCCN=C(N)N)C(=O)N[C@@H](CCCN=C(N)N)C(N)=O)NC(=O)[C@H](Cc2ccccc2)NC(=O)[C@H](Cc2ccc(O)cc2)NC(=O)[C@H](CO)NC1=O` [CASYFCRWWWRR], the MIC is 8 µM (≈ 13.7 µg/mL) in [4]; 8 µM (≈ 13.7 µg/mL) in [5]; not below 64 µM in experiment [6]; not below 32 µM in [7]; not below 32 µM in [8]; 64 µM (≈ 110 µg/mL) in experiment [9]. Moreover, the minimum inhibitory concentration (MIC) in [10] is not below 64 µM; in experiment [11], more than 64 µM; in experiment [12], not below 64 µM; in experiment [13], not below 64 µM; in [14], not below 64 µM; in [15], 4 µM (≈ 6.87 µg/mL). Moreover, the results for the minimum inhibitory concentration (MIC) in [16], in [17] and in experiment [18] were 4 µM (≈ 6.87 µg/mL), 8 µM (≈ 13.7 µg/mL) and 4 µM (≈ 6.87 µg/mL), respectively.

`NC(=O)[C@H](Cc1c[nH]c2ccccc12)NC(=O)[C@H](CCCN=C(N)N)NC(=O)[C@H](Cc1c[nH]c2ccccc12)NC(=O)[C@H](Cc1c[nH]c2ccccc12)NC(=O)[C@H](CCCN=C(N)N)NC(=O)[C@H](Cc1c[nH]c2ccccc12)NC(=O)[C@H](Cc1c[nH]c2ccccc12)NC(=O)[C@H](CCCN=C(N)N)NC(=O)[C@H](Cc1c[nH]c2ccccc12)NC(=O)[C@H](Cc1c[nH]c2ccccc12)NC(=O)[C@H](CCCN=C(N)N)NC(=O)[C@H](Cc1c[nH]c2ccccc12)NC(=O)[C@H](Cc1c[nH]c2ccccc12)NC(=O)[C@H](CCCN=C(N)N)NC(=O)[C@@H](N)Cc1c[nH]c2ccccc12` [WRWWRWWRWWRWWRW]: the MIC in experiment [19] came to 16 µM (≈ 42.6 µg/mL); in [11], 16 µM (≈ 42.6 µg/mL); in experiment [20] it was 16 µM (≈ 42.6 µg/mL); in experiment [21], 8 µM (≈ 21.3 µg/mL); in [22], 8 µM (≈ 21.3 µg/mL); in [23], 16 µM (≈ 42.6 µg/mL). Moreover, the minimum inhibitory concentration (MIC) in [24] is 4 µM (≈ 10.6 µg/mL); in [25], 4 µM (≈ 10.6 µg/mL); in experiment [16] it was 8 µM and 16 µM; in experiment [26], 4 µM (≈ 10.6 µg/mL); in experiment [27] it was 16 µM (≈ 42.6 µg/mL); in experiment [28], 16 µM (≈ 42.6 µg/mL). The compound further had an MIC in experiment [29] not below 32 µM.

In the case of `C[C@H](NC(=O)[C@H](C)NC(=O)[C@H](Cc1c[nH]c2ccccc12)NC(=O)[C@H](Cc1c[nH]c2ccccc12)NC(=O)[C@H](Cc1c[nH]c2ccccc12)NC(=O)[C@@H](N)CCCN=C(N)N)C(N)=O` [RWWWAA], the minimum inhibitory concentration (MIC) was not below 64 µM in experiment [4]; more than 64 µM in experiment [5]; not below 64 µM in [6]; not below 64 µM in experiment [7]; not below 64 µM in [8]; more than 64 µM in [9]. The minimal inhibitory concentration (MIC) was not below 64 µM in experiment [10]; more than 64 µM in experiment [11]; more than 64 µM in [22]; not below 64 µM in [12]; not below 64 µM in experiment [13]; not below 64 µM in experiment [14]. For the same compound, the minimal inhibitory concentration (MIC) in [15] is more than 64 µM; in [16] it was more than 64 µM; in experiment [17] it was not below 64 µM; in experiment [18], not below 64 µM.

For orientation: MIC means the smallest concentration in the dilution series that meets the test's criterion for growth inhibition. Read a high MIC as weaker potency.

Source of the values: DBAASP.
